# Legend:
# Assay type in all cases: functional
# [1] = tested on: Candida albicans; experiment: Antimicrobial activity against Candida albicans by EUCAST broth microdilution method
# [2] = tested on: Pichia kudriavzevii; experiment: Antimicrobial activity against Candida krusei ATCC 6258 by CLSI M27-A2 broth microdilution method
# [3] = tested on: Candida parapsilosis; experiment: Antimicrobial activity against Candida parapsilosis ATCC 22019 by EUCAST broth microdilution method; conditions: Lodderomyces parapsilosis
# [4] = tested on: Pichia kudriavzevii; experiment: Antimicrobial activity against Candida krusei ATCC 6258 by EUCAST broth microdilution method
# [5] = tested on: Candida parapsilosis; experiment: Antimicrobial activity against Candida parapsilosis ATCC 22019 by CLSI M27-A2 broth microdilution method; conditions: Lodderomyces parapsilosis
# [6] = tested on: Nakaseomyces glabratus; experiment: Antimicrobial activity against Candida glabrata by CLSI M27-A2 broth microdilution method
# [7] = tested on: Nakaseomyces glabratus; experiment: Antimicrobial activity against Candida glabrata by EUCAST broth microdilution method
# [8] = tested on: Candida albicans; experiment: Antimicrobial activity against Candida albicans by CLSI M27-A2 broth microdilution method
SMILES,MIC50 [1] [mg/L],MIC50 [2] [mg/L],MIC50 [3] [mg/L],MIC50 [4] [mg/L],MIC50 [5] [mg/L],MIC50 [6] [mg/L],MIC50 [7] [mg/L],MIC50 [8] [mg/L]
Clc1ccc(C(Cn2ccnc2)OCc2ccc(Sc3ccccc3)cc2)c(Cl)c1 (configuration not stated) [FENTICONAZOLE],0.03,0.06,0.03,0.06,0.03,0.03,0.03,0.03
OC(Cn1cncn1)(Cn1cncn1)c1ccc(F)cc1F [FLUCONAZOLE],0.12,16,0.5,32,2,2,2,0.12
CCC(C)n1ncn(-c2ccc(N3CCN(c4ccc(OCC5COC(Cn6cncn6)(c6ccc(Cl)cc6Cl)O5)cc4)CC3)cc2)c1=O (configuration not stated) [ITRACONAZOLE],0.03,0.12,0.06,0.03,0.06,0.03,0.03,0.03
CC(=O)N1CCN(c2ccc(OCC3COC(Cn4ccnc4)(c4ccc(Cl)cc4Cl)O3)cc2)CC1 (configuration not stated) [KETOCONAZOLE],0.12,0.25,0.12,0.12,0.12,0.5,2,0.12
